From patent US12534469B2 (CHILDREN'S HOSPITAL MEDICAL CENTER, priority 2020, dated 2026)

How the values were obtained:
Type in all cases: biochemical
IRAK1 = molecular target: T1, IRAK1 (Homo sapiens, UniProt P51617); assay: RBC HotSpot Kinase Assay, IRAK1
T1 construct: purchased Reaction Biology (RBC HotSpot Kinase Assay)
Description: (§1) This assay uses the isolated kinase enzyme. This assay is very useful for determining competition of the inhibitor for ATP and/or substrates and for measuring the kinetics of enzyme inhibition. […] Unlike kinase binding assays that measure competition for ATP, the HotSpot Kinase Assay is a functional assay that measures catalytic activity; as such it measures relative functional potency regardless of the mechanism of enzyme inhibition. This assay uses the form of the various enzymes that are easiest to express, which may not necessarily be the form of the enzyme that exist in the cell. (Sometimes the carboxy terminus has been truncated to aid in expression, or, if it is a receptor kinase, the enzyme itself is isolated from the other parts of the receptor that are involved in regulating kinase activity.)
(§2) The reagent used was as follows: Base Reaction buffer; 20 mM Hepes (pH 7.5), 10 mM MgCl2, 1 mM EGTA, 0.01% Brij35, 0.02 mg/ml BSA, 0.1 mM Na3VO4, 2 mM DTT, 1% DMSO. Required cofactors were added individually to each kinase reaction.
(§3) The reaction procedure was as follows: • 1) Substrates were prepared in freshly prepared Reaction Buffer. • 2) Any required cofactors were delivered to the substrate solution above. • 3) Kinase was delivered into the substrate solution and gently mixed. • 4) Compounds were delivered in 100% DMSO into the kinase reaction mixture by Acoustic technology (Echo550; nanoliter range), followed by incubation for 20 min at room temp. • 5) ^33P-ATP was delivered into the reaction mixture to initiate the reaction. • 6) The mixture was incubated for 2 hours at room temperature. • 7) Kinase activity was detected by P81 filter-binding method.

FLT3 = molecular target: T2, FLT3 (Homo sapiens, UniProt P36888); assay: RBC HotSpot Kinase Assay, FLT3
T2 construct: purchased Reaction Biology (RBC HotSpot Kinase Assay)
T2 sequence (P36888 564-958 limits assumed): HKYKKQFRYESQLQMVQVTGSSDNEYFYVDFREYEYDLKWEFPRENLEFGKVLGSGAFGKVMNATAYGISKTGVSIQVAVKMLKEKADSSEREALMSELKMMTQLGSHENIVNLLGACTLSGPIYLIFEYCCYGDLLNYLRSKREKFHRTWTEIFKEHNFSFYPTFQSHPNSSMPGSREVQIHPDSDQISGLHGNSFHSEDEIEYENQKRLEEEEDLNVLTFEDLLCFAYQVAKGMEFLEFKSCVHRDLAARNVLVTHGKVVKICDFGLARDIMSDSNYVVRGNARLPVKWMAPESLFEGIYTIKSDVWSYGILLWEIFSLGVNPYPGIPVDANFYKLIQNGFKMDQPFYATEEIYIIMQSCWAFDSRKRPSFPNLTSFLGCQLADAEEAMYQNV
Description: as §1, §2, §3

IRAK4 = molecular target: T3, IRAK4 (Homo sapiens, UniProt Q9NWZ3); assay: RBC HotSpot Kinase Assay, IRAK4; parameters: purchased Reaction Biology (RBC HotSpot Kinase Assay)
T3 sequence (Q9NWZ3 1-460): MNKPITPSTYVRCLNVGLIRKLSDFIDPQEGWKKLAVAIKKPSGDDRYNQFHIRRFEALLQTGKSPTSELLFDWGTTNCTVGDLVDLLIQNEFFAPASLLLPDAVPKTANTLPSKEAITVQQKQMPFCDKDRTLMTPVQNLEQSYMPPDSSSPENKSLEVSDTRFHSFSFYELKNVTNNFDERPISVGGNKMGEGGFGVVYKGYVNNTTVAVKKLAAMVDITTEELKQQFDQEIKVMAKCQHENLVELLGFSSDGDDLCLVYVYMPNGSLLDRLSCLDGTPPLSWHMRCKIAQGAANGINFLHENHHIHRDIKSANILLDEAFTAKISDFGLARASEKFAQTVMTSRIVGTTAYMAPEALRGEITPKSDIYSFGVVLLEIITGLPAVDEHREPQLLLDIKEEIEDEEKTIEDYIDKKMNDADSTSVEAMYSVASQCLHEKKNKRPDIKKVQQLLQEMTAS
Description: as §1, §2, §3

T1 sequence (P51617 whole entry): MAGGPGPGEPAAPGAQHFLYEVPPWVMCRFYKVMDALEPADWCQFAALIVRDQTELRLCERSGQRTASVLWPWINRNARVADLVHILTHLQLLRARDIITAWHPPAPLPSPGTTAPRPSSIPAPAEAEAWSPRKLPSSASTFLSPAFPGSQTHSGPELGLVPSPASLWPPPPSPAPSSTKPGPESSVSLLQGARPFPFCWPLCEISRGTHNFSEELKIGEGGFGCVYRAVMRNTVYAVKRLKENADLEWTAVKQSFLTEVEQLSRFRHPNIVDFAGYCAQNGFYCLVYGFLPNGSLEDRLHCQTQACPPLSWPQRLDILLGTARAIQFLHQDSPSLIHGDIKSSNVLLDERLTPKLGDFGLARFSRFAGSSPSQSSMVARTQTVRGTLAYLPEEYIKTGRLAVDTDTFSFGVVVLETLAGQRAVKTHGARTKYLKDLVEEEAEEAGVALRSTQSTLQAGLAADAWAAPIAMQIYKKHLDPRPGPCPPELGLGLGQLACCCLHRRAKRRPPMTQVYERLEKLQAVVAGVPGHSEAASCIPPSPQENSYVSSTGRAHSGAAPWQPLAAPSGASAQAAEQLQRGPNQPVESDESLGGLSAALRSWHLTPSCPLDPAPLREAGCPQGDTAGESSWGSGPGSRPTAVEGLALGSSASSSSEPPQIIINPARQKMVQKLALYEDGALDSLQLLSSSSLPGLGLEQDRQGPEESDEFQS

SMILES | IC50 (IRAK1) | IC50 (FLT3) | IC50 (IRAK4)
FC(F)n1cc(-c2ccc3ncc(-c4cccc(N[C@H]5CCNC[C@@H]5F)n4)n3n2)cn1 [Compound 6, 6-(6-(1-(difluoromethyl)-1 H-pyrazol-4-yl)imidazo[1,2-b]pyridazin-3-yl)-N-((3S,4S)-3-fluoropiperidin-4-yl)pyridin-2-amine] | 296 nM | 4 nM | 62 nM
CC(C)(O)Cn1cc(-c2ccc3ncc(-c4cccc(N[C@H]5CNC[C@@H]5F)n4)n3n2)cn1 [Compound 4, 1-(4-(3-(6-(((3S,4S)-4-fluoropyrrolidin-3-yl)amino)pyridin-2-yl)imidazo[1,2-b]pyridazin-6-yl)-1 H-pyrazol-1-yl)-2-methylpropan-2-ol] | 1360 nM | 3 nM | 114 nM
c1cc(NC2CCNC2)nc(-c2cnc3ccc(-c4cnn(C5CCOCC5)c4)nn23)c1 (stereo not drawn) [Compound 29, N-(pyrrolidin-3-yl)-6-(6-(1-(tetrahydro-2H-pyran-4-yl)-1H-pyrazol-4-yl)imidazo[1,2-b]pyridazin-3-yl)pyridin-2-amine] | 13000 nM | 4 nM | 2460 nM
Cn1cc(-c2ccc3ncc(-c4cccc(NC5CC6(CNC6)C5)n4)n3n2)cn1 [Compound 35, N-(6-(6-(1-methyl-1H-pyrazol-4-yl)imidazo[1,2-b]pyridazin-3-yl)pyridin-2-yl)-2-azaspiro[3.3]heptan-6-amine] | 2820 nM | 3 nM | 126 nM
F[C@H]1CNC[C@@H]1Nc1cccc(-c2cnc3ccc(-c4cnn(C5CC5)c4)nn23)n1 [Compound 3, 6-(6-(1-cyclopropyl-1 H-pyrazol-4-yl)imidazo[1,2-b]pyridazin-3-yl)-N-((3S,4S)-4-fluoropyrrolidin-3-yl)pyridin-2-amine] | 449 nM | 1 nM | 71 nM
c1cc(NC2CC3(CNC3)C2)nc(-c2cnc3ccc(-c4cn[nH]c4)nn23)c1 [Compound 31, N-(6-(6-(1H-pyrazol-4-yl)imidazo[1,2-b]pyridazin-3-yl)pyridin-2-yl)-2-azaspiro[3.3]heptan-6-amine] | 49 nM | 0.5 nM | 6 nM
c1cc(NC2CC3(CCNC3)C2)nc(-c2cnc3ccc(-c4cn[nH]c4)nn23)c1 (stereo not drawn) [Compound 38, N-(6-(6-(1H-pyrazol-4-yl)imidazo[1,2-b]pyridazin-3-yl)pyridin-2-yl)-6-azaspiro[3.4]octan-2-amine] | 23 nM | < 0.5 nM | 2 nM
CC(C)(O)Cn1cc(-c2ccc3ncc(-c4cccc(NC5CNCC5(F)F)n4)n3n2)cn1 (stereo not drawn) [Compound 24, 1-(4-(3-(6-((4,4-difluoropyrrolidin-3-yl)amino)pyridin-2-yl)imidazo[1,2-b]pyridazin-6-yl)-1H-pyrazol-1-yl)-2-methylpropan-2-ol] | 1640 nM | 17 nM | 261 nM
c1cc(NC2CCC3(CNC3)C2)nc(-c2cnc3ccc(-c4cn[nH]c4)nn23)c1 (stereo not drawn) [Compound 45, N-(6-(6-(1H-pyrazol-4-yl)imidazo[1,2-b]pyridazin-3-yl)pyridin-2-yl)-2-azaspiro[3.4]octan-6-amine] | 37 nM | < 0.5 nM | 8 nM
Cc1oncc1-c1ccc2ncc(-c3cccc(NC4CCC5(CNC5)C4)n3)n2n1 (stereo not drawn) [Compound 50, N-(6-(6-(5-methylisoxazol-4-yl)imidazo[1,2-b]pyridazin-3-yl)pyridin-2-yl)-2-azaspiro[3.4]octan-6-amine] | 1060 nM | 8 nM | 2670 nM
c1cc(NC2CCC3(CNC3)C2)nc(-c2cnc3ccc(-c4cnn(C5CCOCC5)c4)nn23)c1 (stereo not drawn) [Compound 48, N-(6-(6-(1-(tetrahydro-2H-pyran-4-yl)-1H-pyrazol-4-yl)imidazo[1,2-b]pyridazin-3-yl)pyridin-2-yl)-2-azaspiro[3.4]octan-6-amine] | > 10000 nM | 12 nM | 4080 nM
c1ccc(-n2cc(-c3ccc4ncc(-c5cccc(NC6CC7(CCNC7)C6)n5)n4n3)cn2)cc1 (stereo not drawn) [Compound 40, N-(6-(6-(1-phenyl-1H-pyrazol-4-yl)imidazo[1,2-b]pyridazin-3-yl)pyridin-2-yl)-6-azaspiro[3.4]octan-2-amine] | > 10000 nM | 9 nM | 1300 nM
FC(F)(F)[C@H]1CNC[C@@H]1Nc1cccc(-c2cnc3ccc(-c4cnn(C5CC5)c4)nn23)n1 [Compound 13, 6-(6-(1-cyclopropyl-1 H-pyrazol-4-yl)imidazo[1,2-b]pyridazin-3-yl)-N-((3R,4S)-4-(trifluoromethyl)pyrrolidin-3-yl)pyridin-2-amine] | 1840 nM | 2 nM | 106 nM
c1ccc(-n2cc(-c3ccc4ncc(-c5cccc(NC6CCNC6)n5)n4n3)cn2)cc1 (stereo not drawn) [Compound 28, 6-(6-(1-phenyl-1H-pyrazol-4-yl)imidazo[1,2-b]pyridazin-3-yl)-N-(pyrrolidin-3-yl)pyridin-2-amine] | 6580 nM | 2 nM | 2360 nM

Results, then the compound that gave them:

IC50 (IRAK1) | IC50 (FLT3) | IC50 (IRAK4) | SMILES
1690 nM | < 0.5 nM | 8 nM | FC1(F)CNCC1Nc1cccc(-c2cnc3ccc(-c4cnn5ncccc45)nn23)n1 (stereo not drawn) [Compound 54, N-(4,4-difluoropyrrolidin-3-yl)-6-(6-(pyrazolo[1,5-b]pyridazin-3-yl)imidazo[1,2-b]pyridazin-3-yl)pyridin-2-amine]
5860 nM | 4 nM | 148 nM | CO[C@H]1CNC[C@@H]1Nc1cccc(-c2cnc3ccc(C4CC4)nn23)n1 [Compound 74, 6-(6-cyclopropylimidazo[1,2-b]pyridazin-3-yl)-N-((3S,4S)-4-methoxypyrrolidin-3-yl)pyridin-2-amine]
3970 nM | 3 nM | 45 nM | F[C@H]1CNC[C@@H]1Nc1cccc(-c2cnc3ccc(C4CC4)nn23)n1 [Compound 69, 6-(6-cyclopropylimidazo[1,2-b]pyridazin-3-yl)-N-((3S,4S)-4-fluoropyrrolidin-3-yl)pyridin-2-amine]
3190 nM | 9 nM | 323 nM | CC(C)Oc1cnn2c(-c3cccc(N[C@H]4CNC[C@@H]4F)n3)cnc2c1 [Compound 115, N-((3S,4S)-4-fluoropyrrolidin-3-yl)-6-(7-isopropoxyimidazo[1,2-b]pyridazin-3-yl)pyridin-2-amine]
3590 nM | 1 nM | 36 nM | FC(F)[C@H]1CNC[C@@H]1Nc1cccc(-c2cnc3ccc(C4CC4)nn23)n1 [Compound 72, 6-(6-cyclopropylimidazo[1,2-b]pyridazin-3-yl)-N-((3R,4S)-4-(difluoromethyl)pyrrolidin-3-yl)pyridin-2-amine]
> 10000 nM | 13 nM | 1980 nM | COc1cc2ncc(-c3cccc(N[C@@H]4CCCNC4)n3)n2nc1N1CCCC1=O [Compound 137, (R)-1-(7-methoxy-3-(6-(piperidin-3-ylamino)pyridin-2-yl)imidazo[1,2-b]pyridazin-6-yl)pyrrolidin-2-one]
403 nM | < 0.5 nM | 16 nM | c1cc(NC2CC3(CCNC3)C2)nc(-c2cnc3ccc(-c4cnn5ccccc45)nn23)c1 (stereo not drawn) [Compound 62, N-(6-(6-(pyrazolo[1,5-a]pyridin-3-yl)imidazo[1,2-b]pyridazin-3-yl)pyridin-2-yl)-6-azaspiro[3.4]octan-2-amine]
7240 nM | 22 nM | 959 nM | F[C@H]1CNC[C@@H]1Nc1cccc(-c2cnc3ccc(Oc4ccccc4)nn23)n1 [Compound 88, N-((3S,4S)-4-fluoropyrrolidin-3-yl)-6-(6-phenoxyimidazo[1,2-b]pyridazin-3-yl)pyridin-2-amine]
